How the values were obtained:
[1] = system: ACC deaminase from bacterial strain 388 (B27444, St. Charles soil, ACC enriched); conditions: read-out: Km (ACC), crude desalted extract, Tris pH 8.0, 30° C., double reciprocal plot
Experimental: (§1) The Km for the ACC deaminases isolated from the various soil sources was determined using crude, desalted extracts. Individual strains of bacteria were grown in liquid media containing 4 g KH2 PO4, 6.5 g K2 HPO4, 1 g MgSO4.7H2 O, 2 g glucose, 1 mg FeSO4, 1 mg MnCl2, 1 mg ZnSO4, 1 mg CuSO4, 1 mg CaCl2, and 300 mg ACC, all in 1 liter H2 O. Cells were grown for 2 to 3 days at 30° C. Cells were pelleted by centrifugation and resuspended in extraction buffer containing 0.1M phosphate, pH 7.5, 1 mM EDTA, 0.1% β-mercaptoethanol. The cells were broken with a French Press, 1000 psi, and the cell debris was pelleted by centrifugation. […] Glycerol was added to the extract (20% v/v) and enzyme solutions were stored at -20° C. ACC deaminase enzyme assays were conducted as described in the Examples to follow. The assay mixture contained 100 μl of 0.2M Tris buffer, pH 8.0, 30 μl of 500 mM ACC solution, and enzyme solution to make a final volume of 200 μl. Reactions were run for 10 minutes at 30° C. The reaction was stopped with 1.8 ml of 2N HCl. After adding 300 μl 0.1% 2,4-dinitrophenylhydrazine, the mixture was incubated for 15 minutes at 30° C. The solution was then made basic by adding 2 ml of 2N NaOH. The optical density of the resulting brownish-red solution was determined at 540 nm with a spectrophotometer.
(§2) The kinetic value, Km, for ACC deaminase was determined against ACC as the enzyme substrate for each of the ACC deaminases isolated. […] An estimated Km was determined for each extracted enzyme with ACC at sub-saturating concentrations. […] Actual Km values were then determined for each extract using ACC concentrations between 0.2× and 2× of the estimated Km, or ACC concentrations between 1 and 10 mM ACC. Km values were calculated from double reciprocal plots, plotting the reciprocal of the substrate concentration on the x-axis and the reciprocal of the velocity (α-ketobutyrate formed) on the y-axis.

[2] = system: ACC deaminase from bacterial strain 392 (B27448, Peru soil); conditions: read-out: Km (ACC), crude desalted extract, Tris pH 8.0, 30° C., double reciprocal plot
Experimental: as §1, §2

[3] = system: ACC deaminase from bacterial strain T44 (B27817, Tanzania soil); conditions: read-out: Km (ACC), crude desalted extract, Tris pH 8.0, 30° C., double reciprocal plot
Experimental: as §1, §2

[4] = system: ACC deaminase from Pseudomonas isolate 3F2 (gene SEQ ID NO:15, amino acid SEQ ID NO:16); conditions: read-out: Km (ACC); strain 3F2; crude desalted extract, Tris pH 8.0, 30° C., double reciprocal plot
Experimental: as §1, §2

[5] = system: ACC deaminase from bacterial strain 391 (B27447, Malaysia soil); conditions: read-out: Km (ACC), crude desalted extract, Tris pH 8.0, 30° C., double reciprocal plot
Experimental: as §1, §2

[6] = system: ACC deaminase from bacterial strain 401 (B27457, St. Charles soil, ACC enriched); conditions: read-out: Km (ACC), crude desalted extract, Tris pH 8.0, 30° C., double reciprocal plot
Experimental: as §1, §2

[7] = system: ACC deaminase from bacterial strain PR-1 (B27813, Puerto Rico soil); conditions: read-out: Km (ACC), crude desalted extract, Tris pH 8.0, 30° C., double reciprocal plot
Experimental: as §1, §2

[8] = system: ACC deaminase from bacterial strain 393 (B27449, St. Charles soil); conditions: read-out: Km (ACC), crude desalted extract, Tris pH 8.0, 30° C., double reciprocal plot
Experimental: as §1, §2

For `NC1(C(=O)O)CC1` [ACC, 1-aminocyclopropane-1-carboxylic acid], the Km [1] was 8.6 mM, the Km [2] was 7.1 mM and the Km [3] was 11.8 mM. For the same molecule, the Km [4] was 5.8 mM, the Km [5] was 17.4 mM and the Km [6] was 7.8 mM. For the same molecule, the Km [7] was 4.1 mM and the Km [8] was 5.9 mM.

Source: patent US5512466A, “Control of fruit ripening and senescence in plants” (Monsanto Company, priority 1991, dated 1996)
